Measurements as given in ChEMBL document CHEMBL4118189, “Discovery of novel N-hydroxy-2-arylisoindoline-4-carboxamides as potent and selective inhibitors of HDAC11” (Bioorg Med Chem Lett, 2018).
Values after ≈ are worked out from the molar mass of the structure shown.

Legend:
Histone deacetylase 11 [1] = target: T1, Histone deacetylase 11 (Homo sapiens, UniProt Q96DB2); experiment: Inhibition of full length recombinant human HDAC11 expressed in baculoviral expression system using FAM-RHKK as substrate by electrophoretic mobility shift assay
T1 sequence (Q96DB2 whole entry): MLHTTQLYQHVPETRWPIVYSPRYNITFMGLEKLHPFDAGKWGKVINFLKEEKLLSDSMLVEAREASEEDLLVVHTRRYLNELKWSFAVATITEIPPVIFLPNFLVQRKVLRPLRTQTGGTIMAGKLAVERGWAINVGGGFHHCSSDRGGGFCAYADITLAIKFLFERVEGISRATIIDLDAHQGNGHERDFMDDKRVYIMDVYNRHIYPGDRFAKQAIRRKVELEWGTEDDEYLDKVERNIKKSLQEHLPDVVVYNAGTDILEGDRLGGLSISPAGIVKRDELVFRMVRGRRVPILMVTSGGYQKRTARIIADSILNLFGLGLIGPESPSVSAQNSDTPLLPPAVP

[2] = Intrinsic clearance in mouse liver microsomes; assay type: ADME, microsome; details: read-out: CLH
[3] = target: T2, Protein deacetylase HDAC6 (Homo sapiens, UniProt Q9UBN7); experiment: Inhibition of full length recombinant human HDAC6 using fluorescent-labeled peptide as substrate by electrophoretic mobility shift assay
T2 sequence (Q9UBN7 whole entry): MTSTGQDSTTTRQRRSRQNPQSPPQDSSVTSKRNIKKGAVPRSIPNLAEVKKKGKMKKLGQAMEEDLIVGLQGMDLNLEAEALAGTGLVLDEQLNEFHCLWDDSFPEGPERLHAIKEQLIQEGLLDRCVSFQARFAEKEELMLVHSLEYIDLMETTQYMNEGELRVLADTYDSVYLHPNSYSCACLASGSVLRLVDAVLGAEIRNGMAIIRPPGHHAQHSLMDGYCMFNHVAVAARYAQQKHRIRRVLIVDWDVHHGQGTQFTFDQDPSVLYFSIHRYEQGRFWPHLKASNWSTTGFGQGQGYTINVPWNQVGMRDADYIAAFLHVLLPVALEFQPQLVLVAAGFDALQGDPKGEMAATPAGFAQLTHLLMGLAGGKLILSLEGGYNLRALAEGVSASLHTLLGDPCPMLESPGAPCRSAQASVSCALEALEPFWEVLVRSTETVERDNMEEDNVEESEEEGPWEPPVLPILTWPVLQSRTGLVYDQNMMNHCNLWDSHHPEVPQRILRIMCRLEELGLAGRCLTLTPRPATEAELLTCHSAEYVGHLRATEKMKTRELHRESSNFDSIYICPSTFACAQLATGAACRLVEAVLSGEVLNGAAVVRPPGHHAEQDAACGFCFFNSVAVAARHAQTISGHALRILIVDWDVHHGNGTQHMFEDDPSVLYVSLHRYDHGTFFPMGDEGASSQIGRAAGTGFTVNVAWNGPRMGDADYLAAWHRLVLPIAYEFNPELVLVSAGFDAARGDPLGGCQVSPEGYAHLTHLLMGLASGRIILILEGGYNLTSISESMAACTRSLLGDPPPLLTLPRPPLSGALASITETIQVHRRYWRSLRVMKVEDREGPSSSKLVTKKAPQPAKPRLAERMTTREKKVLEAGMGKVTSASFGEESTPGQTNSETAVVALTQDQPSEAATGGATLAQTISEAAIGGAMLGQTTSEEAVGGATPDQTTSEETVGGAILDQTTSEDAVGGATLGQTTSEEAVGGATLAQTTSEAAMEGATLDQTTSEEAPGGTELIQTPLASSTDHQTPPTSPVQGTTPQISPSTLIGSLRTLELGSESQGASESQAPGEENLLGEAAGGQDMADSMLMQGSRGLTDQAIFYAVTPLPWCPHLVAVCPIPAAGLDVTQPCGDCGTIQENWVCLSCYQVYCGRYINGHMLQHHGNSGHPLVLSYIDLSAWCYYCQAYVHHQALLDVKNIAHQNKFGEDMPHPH

[4] = Kinetic solubility of the compound at pH 7.4; assay type: physicochemical; details: buffer, read-out: Kinetic_solubility
Histone deacetylase 11 [5] = target: T1, Histone deacetylase 11; experiment: Inhibition of NanoLuc-tagged HDAC11 (unknown origin) by BRET assay
[6] = Permeability of the compound by PAMPA; assay type: ADME; details: read-out: permeability
Histone deacetylase 1 = Histone deacetylase 1 (Homo sapiens, UniProt Q13547); experiment: Inhibition of full length recombinant human HDAC1 using fluorescent-labeled peptide as substrate by electrophoretic mobility shift assay
Histone deacetylase 2 = Histone deacetylase 2 (Homo sapiens, UniProt Q92769); experiment: Inhibition of full length recombinant human HDAC2 using fluorescent-labeled peptide as substrate by electrophoretic mobility shift assay
Histone deacetylase 3 = Histone deacetylase 3 (Homo sapiens, UniProt O15379); experiment: Inhibition of full length recombinant human HDAC3 using fluorescent-labeled peptide as substrate by electrophoretic mobility shift assay
Histone deacetylase 5 = Histone deacetylase 5 (Homo sapiens, UniProt Q9UQL6); experiment: Inhibition of full length recombinant human HDAC5 using fluorescent-labeled peptide as substrate by electrophoretic mobility shift assay
Histone deacetylase 7 = target: T3, Histone deacetylase 7 (Homo sapiens, UniProt Q8WUI4); experiment: Inhibition of full length recombinant human HDAC7 using fluorescent-labeled peptide as substrate by electrophoretic mobility shift assay
T3 sequence (Q8WUI4 whole entry): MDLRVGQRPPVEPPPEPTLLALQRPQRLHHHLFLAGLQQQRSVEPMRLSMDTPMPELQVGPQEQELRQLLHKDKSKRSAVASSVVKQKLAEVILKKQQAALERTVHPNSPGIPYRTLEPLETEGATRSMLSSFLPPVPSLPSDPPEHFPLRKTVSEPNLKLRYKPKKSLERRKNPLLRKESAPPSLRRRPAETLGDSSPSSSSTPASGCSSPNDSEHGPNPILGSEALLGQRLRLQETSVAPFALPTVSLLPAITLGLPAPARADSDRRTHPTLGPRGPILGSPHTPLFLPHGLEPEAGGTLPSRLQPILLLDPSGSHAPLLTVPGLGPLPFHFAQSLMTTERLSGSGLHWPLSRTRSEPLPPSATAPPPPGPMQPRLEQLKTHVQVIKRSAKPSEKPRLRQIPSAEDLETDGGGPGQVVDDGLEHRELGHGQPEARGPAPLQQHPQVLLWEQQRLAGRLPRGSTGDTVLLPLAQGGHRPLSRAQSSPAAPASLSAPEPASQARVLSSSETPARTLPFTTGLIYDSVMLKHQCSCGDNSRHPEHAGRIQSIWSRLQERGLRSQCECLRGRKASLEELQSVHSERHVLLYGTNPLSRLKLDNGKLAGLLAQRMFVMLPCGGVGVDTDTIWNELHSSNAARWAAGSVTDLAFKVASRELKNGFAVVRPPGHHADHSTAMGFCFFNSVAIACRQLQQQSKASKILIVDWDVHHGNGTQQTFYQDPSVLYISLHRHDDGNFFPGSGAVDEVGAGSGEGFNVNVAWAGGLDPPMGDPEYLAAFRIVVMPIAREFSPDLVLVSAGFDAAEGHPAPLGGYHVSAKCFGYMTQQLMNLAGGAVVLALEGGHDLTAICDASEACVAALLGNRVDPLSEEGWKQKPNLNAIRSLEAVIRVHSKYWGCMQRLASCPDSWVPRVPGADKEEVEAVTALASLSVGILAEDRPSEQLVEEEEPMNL

Histone deacetylase 9 = Histone deacetylase 9 (Homo sapiens, UniProt Q9UKV0); experiment: Inhibition of full length recombinant human HDAC9 using fluorescent-labeled peptide as substrate by electrophoretic mobility shift assay
[7] = target: T4, Polyamine deacetylase HDAC10 (Homo sapiens, UniProt Q969S8); experiment: Inhibition of full length recombinant human HDAC10 using fluorescent-labeled peptide as substrate by electrophoretic mobility shift assay
T4 sequence (Q969S8 whole entry): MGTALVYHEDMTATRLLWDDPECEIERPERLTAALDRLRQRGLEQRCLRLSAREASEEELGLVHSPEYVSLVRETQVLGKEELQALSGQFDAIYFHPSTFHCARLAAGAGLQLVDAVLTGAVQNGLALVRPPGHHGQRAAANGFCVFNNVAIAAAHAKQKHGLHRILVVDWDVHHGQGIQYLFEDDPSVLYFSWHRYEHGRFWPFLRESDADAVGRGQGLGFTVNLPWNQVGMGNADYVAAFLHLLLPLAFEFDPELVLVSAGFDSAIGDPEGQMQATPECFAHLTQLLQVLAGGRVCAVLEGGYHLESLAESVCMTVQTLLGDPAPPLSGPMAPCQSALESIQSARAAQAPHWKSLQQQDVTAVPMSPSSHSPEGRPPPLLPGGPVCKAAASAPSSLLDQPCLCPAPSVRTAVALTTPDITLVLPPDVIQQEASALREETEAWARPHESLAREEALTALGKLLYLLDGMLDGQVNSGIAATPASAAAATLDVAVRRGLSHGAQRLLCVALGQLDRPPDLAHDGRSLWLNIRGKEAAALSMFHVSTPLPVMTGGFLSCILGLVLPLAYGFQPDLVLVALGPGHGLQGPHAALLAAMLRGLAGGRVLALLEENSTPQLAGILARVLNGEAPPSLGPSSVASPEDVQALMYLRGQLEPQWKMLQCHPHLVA

Histone deacetylase 2, sequence (Q92769 whole entry): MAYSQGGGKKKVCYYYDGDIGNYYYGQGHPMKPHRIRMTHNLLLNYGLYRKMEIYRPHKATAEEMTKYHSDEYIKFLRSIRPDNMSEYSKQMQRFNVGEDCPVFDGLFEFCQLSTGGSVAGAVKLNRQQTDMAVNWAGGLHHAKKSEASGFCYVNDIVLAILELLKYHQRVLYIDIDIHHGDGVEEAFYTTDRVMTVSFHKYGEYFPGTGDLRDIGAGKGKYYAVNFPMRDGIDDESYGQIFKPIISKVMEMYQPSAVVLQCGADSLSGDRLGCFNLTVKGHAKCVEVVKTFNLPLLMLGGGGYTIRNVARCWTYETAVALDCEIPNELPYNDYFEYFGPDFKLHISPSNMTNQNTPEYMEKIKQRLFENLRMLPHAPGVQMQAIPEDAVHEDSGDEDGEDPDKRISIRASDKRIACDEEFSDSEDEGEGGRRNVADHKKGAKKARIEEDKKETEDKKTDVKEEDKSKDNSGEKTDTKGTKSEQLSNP
Histone deacetylase 5, sequence (Q9UQL6 whole entry): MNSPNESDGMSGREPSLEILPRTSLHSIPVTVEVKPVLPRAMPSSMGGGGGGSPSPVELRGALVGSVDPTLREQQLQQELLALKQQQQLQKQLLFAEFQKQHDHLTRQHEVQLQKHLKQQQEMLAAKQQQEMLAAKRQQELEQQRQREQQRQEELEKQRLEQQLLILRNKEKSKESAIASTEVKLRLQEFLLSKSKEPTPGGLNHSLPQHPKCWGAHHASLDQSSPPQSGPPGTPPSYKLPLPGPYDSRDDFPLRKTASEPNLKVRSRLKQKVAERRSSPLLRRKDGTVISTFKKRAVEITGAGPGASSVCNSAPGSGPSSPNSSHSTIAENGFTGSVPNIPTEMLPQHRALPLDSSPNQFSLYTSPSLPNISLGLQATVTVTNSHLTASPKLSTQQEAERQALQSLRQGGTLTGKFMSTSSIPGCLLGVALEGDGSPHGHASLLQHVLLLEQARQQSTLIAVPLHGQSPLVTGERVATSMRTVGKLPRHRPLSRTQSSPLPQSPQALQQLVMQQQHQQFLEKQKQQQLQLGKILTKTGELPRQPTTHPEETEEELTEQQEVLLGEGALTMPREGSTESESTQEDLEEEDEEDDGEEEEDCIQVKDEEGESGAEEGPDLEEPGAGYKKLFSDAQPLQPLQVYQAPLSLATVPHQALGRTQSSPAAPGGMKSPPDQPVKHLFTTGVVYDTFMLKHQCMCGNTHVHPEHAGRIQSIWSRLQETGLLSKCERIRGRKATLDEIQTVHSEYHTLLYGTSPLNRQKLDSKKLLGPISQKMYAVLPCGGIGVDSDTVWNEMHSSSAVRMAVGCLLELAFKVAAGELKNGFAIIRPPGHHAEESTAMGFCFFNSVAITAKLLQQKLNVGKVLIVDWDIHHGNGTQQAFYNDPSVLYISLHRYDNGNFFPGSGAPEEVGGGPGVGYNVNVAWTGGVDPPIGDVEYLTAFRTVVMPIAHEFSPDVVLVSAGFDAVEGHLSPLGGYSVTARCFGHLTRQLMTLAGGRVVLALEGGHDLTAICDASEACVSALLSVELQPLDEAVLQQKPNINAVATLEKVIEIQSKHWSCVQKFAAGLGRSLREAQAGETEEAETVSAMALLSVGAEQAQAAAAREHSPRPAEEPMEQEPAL
Histone deacetylase 9, sequence (Q9UKV0 whole entry): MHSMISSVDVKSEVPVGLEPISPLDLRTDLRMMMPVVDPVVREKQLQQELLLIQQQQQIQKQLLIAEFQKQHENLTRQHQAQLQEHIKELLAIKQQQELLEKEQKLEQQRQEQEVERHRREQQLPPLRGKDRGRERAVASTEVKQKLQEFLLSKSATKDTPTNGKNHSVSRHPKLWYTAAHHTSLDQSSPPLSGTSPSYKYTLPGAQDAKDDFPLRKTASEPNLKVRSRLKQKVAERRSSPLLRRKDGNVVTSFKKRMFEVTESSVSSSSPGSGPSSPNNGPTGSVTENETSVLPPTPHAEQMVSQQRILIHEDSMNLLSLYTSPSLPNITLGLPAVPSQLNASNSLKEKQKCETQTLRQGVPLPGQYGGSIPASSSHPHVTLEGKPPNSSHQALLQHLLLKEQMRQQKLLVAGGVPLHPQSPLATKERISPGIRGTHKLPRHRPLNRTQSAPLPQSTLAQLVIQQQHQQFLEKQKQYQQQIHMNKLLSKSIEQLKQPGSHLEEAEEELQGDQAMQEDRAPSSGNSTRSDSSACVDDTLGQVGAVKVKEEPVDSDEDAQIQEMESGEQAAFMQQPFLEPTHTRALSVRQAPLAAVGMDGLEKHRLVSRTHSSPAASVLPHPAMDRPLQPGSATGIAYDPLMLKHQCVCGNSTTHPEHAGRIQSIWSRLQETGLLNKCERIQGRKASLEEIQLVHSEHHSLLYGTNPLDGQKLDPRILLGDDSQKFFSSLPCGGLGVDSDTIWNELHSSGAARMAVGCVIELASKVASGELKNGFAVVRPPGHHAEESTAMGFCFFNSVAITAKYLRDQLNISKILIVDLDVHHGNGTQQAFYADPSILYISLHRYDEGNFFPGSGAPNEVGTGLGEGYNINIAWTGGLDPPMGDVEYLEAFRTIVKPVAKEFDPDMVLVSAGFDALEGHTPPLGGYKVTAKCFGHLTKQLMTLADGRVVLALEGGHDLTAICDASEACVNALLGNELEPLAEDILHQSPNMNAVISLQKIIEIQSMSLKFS
Histone deacetylase 1, sequence (Q13547 whole entry): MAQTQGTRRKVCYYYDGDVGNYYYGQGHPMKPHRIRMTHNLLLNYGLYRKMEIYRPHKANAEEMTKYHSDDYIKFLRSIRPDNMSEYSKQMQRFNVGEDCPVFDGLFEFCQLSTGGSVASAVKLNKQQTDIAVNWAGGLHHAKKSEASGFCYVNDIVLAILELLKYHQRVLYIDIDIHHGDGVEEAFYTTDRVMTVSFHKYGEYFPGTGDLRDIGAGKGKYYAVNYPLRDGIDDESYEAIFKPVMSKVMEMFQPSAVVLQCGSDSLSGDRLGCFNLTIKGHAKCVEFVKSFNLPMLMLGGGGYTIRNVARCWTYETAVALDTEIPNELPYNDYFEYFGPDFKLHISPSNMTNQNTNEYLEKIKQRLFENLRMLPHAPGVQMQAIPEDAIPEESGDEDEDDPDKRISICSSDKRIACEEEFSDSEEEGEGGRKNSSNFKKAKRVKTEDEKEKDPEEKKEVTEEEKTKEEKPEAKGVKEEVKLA
Histone deacetylase 3, sequence (O15379 whole entry): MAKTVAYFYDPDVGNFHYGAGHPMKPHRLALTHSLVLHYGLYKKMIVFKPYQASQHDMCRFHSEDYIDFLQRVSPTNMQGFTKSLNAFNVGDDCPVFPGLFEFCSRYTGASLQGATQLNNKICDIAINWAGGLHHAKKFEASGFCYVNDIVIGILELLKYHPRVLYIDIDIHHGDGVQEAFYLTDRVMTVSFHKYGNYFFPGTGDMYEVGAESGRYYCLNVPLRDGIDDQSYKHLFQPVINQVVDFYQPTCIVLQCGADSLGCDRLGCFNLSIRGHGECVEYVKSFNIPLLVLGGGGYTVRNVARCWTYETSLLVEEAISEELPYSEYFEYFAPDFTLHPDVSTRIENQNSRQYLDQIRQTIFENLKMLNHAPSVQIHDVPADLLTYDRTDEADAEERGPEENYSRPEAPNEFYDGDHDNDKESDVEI

| Structure (SMILES) | IC50 (Histone deacetylase 11 [1]) [nM] | microsomal CLint [2] [µL/min/mg] | solubility kinetic [4] [µM] | Papp [6] [×10⁻⁶ cm/s] | further results |
| --- | --- | --- | --- | --- | --- |
| O=C(NO)c1cccc2c1CN(C1=NC3CCCCC3N1)C2 (configuration not stated) | 300 | 317 | – | – | – |
| O=C(NO)c1cccc2c1CN(c1nc3ccccc3[nH]1)CC2 | 4600 | – | – | – | IC50 [3]: 82 nM |
| O=C(NO)c1cccc2c1CN(c1nc3ccccc3s1)C2 | 35 | 323 | – | – | – |
| CC1(C)c2cccc(C(=O)NO)c2CN1c1cnc(C(F)(F)F)nc1 | 27 | 7 | 82 (≈ 28.9 µg/mL) | – | IC50 (Histone deacetylase 11 [5]): 270 nM |
| CC1(C)c2cccc(C(=O)NO)c2CN1c1cnc(C(F)(F)F)cn1 | – | 22 | 31 (≈ 10.9 µg/mL) | 13 | IC50 [3]: > 10000 nM; IC50 (Histone deacetylase 1): > 10000 nM; IC50 (Histone deacetylase 2): > 10000 nM; IC50 (Histone deacetylase 3): > 10000 nM; IC50 (Histone deacetylase 5): > 10000 nM; IC50 (Histone deacetylase 7): > 10000 nM; IC50 (Histone deacetylase 9): > 10000 nM; IC50 [7]: > 10000 nM |
| O=C(NO)c1cccc2c1CCN(c1nc3ccccc3[nH]1)C2 | 1200 | < 7 | – | – | IC50 [3]: > 10000 nM |
| CC1(C)c2cccc(C(=O)NO)c2CN1c1nc2ccc(C(F)(F)F)cc2[nH]1 | 2 | 12 | 51 (≈ 19.9 µg/mL) | 0.1 | – |
| CC1(C)c2cccc(C(=O)NO)c2CN1c1ccc(C(F)(F)F)nc1 | 3 | 12 | 51 (≈ 17.9 µg/mL) | 8 | IC50 (Histone deacetylase 11 [5]): 12 nM |
| O=C(NO)c1cccc2c1CN(c1nc3ccc(C(F)(F)F)cc3[nH]1)C2 | 2 | 140 | – | – | – |
| Cc1nc(N2Cc3cccc(C(=O)NO)c3C2)[nH]c1C | 2300 | 88 | – | – | – |
| CC1(C)c2cccc(C(=O)NO)c2CN1c1ncc(C(F)(F)F)cn1 | 5 | 21 | 32 (≈ 11.3 µg/mL) | 18 | IC50 (Histone deacetylase 11 [5]): 85 nM |
| O=C(NO)c1ccc2c(c1)CCN(c1nc3ccccc3[nH]1)C2 | > 10000 | – | – | – | IC50 [3]: 2 nM |
| CC1(C)c2cccc(C(=O)NO)c2CN1c1nc2ncccc2o1 | 2 | 7 | 78 (≈ 25.3 µg/mL) | 0.7 | IC50 (Histone deacetylase 11 [5]): 20 nM |
| O=C(NO)c1cccc2c1CCN(c1nc3ccccc3[nH]1)CC2 | 30 | 161 | – | – | IC50 [3]: 2800 nM |
| CC1(C)c2cccc(C(=O)NO)c2CN1c1ccc(C(F)(F)F)cn1 | 6 | 28 | 8 (≈ 2.81 µg/mL) | 12 | IC50 (Histone deacetylase 11 [5]): 130 nM |
| O=C(NO)c1cccc2c1CN(c1ccc(C(F)(F)F)cn1)C2 | 7 | 81 | – | – | – |
| O=C(NO)c1cccc2c1CN(c1ccc3ccccc3n1)C2 | 26 | 92 | – | – | – |
| O=C(NO)c1cccc2c1CN(c1nc3ccccc3o1)C2 | 7 | 313 | – | – | – |
| CC1(C)c2cccc(C(=O)NO)c2CN1c1nc2cc(C(F)(F)F)ccc2o1 | 1 | 10 | 4 (≈ 1.57 µg/mL) | 7 | – |
